Values after ≈ are worked out from the molar mass of the structure shown.
Tests used:
[1] = Proliferation of exponentially growing Huh-5-2 cells (MTS method); settings: human, CC50, concentration required to inhibit the proliferation of exponentially growing Huh-5-2 cells by 50%; Table 2
Method: Cells were seeded at a density of 7000 cells per well in 96 well View Plate™ (Packard) in medium containing the same components as described above, except for G418. Cells were allowed to adhere and proliferate for 24 hr. At that time, culture medium was removed and serial dilutions of the test compounds were added in culture medium lacking G418. Interferon alfa 2a (500 IU) was included as a positive control. Plates were further incubated at 37° C. and 5% CO2 for 72 hours. Replication of the HCV replicon in Huh-5 cells results in luciferase activity in the cells. Luciferase activity is measured by adding 50 μl of 1×Glo-lysis buffer (Promega) for 15 minutes followed by 50 ul of the Steady-Glo Luciferase assay reagent (Promega). Luciferase activity is measured with a luminometer and the signal in each individual well is expressed as a percentage of the untreated cultures. […] Instead the density of the culture is measured by means of the MTS method (Promega).

[2] = tested on: HCV replicon I389luc-ubi-neo/NS3-3'/5.1; assay: Anti-HCV replicon assay (luciferase activity) in Huh-5-2 cells; assay type: cell-based, Hepatitis C virus; settings: concentration required to inhibit luciferase activity in the replicon system by 50%
Procedure, shortened: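 Huh-5-2 cells carrying the luciferase HCV replicon, seeded 24 h, then exposed to serial compound dilutions without G418 for 72 h at 37° C, 5% CO2. Replication read as luciferase luminescence, expressed as percentage of untreated cultures; culture density measured in parallel by MTS.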

[3] = Hepatitis C virus, Huh-5-2, 72 h

| Structure (SMILES) | CC50 at 72 h [1] [µg/mL] | IC50 [2, 3] [µg/mL] | IC50 ([2]; 72 hours) [µg/mL] |
| --- | --- | --- | --- |
| COCCN1C(=O)c2ccccc2C(C(=O)Nc2ccn(C)n2)C1c1cccs1 (stereo not shown) [C180, 2-(2-methoxyethyl)-N-(1-methyl-1H-pyrazol-3-yl)-1-oxo-3-(thiophen-2-yl)-1,2,3,4-tetrahydroisoquinoline-4-carboxamide] | 80.8 (≈ 197 µM) | 34.8 (≈ 84.8 µM) |  |
| COCCN1C(=O)c2ccccc2C(C(=O)Nc2ccc(-c3nncn3C)cc2)C1c1cccs1 (stereo not shown) [C214, 2-(2-methoxyethyl)-N-(4-(4-methyl-4H-1,2,4-triazol-3-yl)phenyl)-1-oxo-3-(thiophen-2-yl)-1,2,3,4-tetrahydroisoquinoline-4-carboxamide] | 85.3 (≈ 175 µM) | 5.29 (≈ 10.8 µM) |  |
| COCCN1C(=O)c2ccccc2C(C(=O)Nc2cc(-c3ccco3)[nH]n2)C1c1cccs1 (stereo not shown) [C183, N-(5-(furan-2-yl)-1H-pyrazol-3-yl)-2-(2-methoxyethyl)-1-oxo-3-(thiophen-2-yl)-1,2,3,4-tetrahydroisoquinoline-4-carboxamide] | 77 (≈ 166 µM) | 50.2 (≈ 109 µM) |  |
| COCCN1C(=O)c2ccccc2C(C(=O)Nc2cccc(OC)c2)C1c1cccc(F)c1 (stereo not shown) [C8, 3-(3-Fluorophenyl)-2-(2-methoxyethyl)-N-(3-methoxyphenyl)-1-oxo-1,2,3,4-tetrahydroisoquinoline-4-carboxamide] | 54.5 (≈ 122 µM) | 21.8 (≈ 48.6 µM) |  |
| COCCN1C(=O)c2cc(OC)ccc2C(C(=O)Nc2cccc(OC)c2)C1c1cccs1 (stereo not shown) [C50, 7-Methoxy-2-(2-methoxyethyl)-N-(3-methoxyphenyl)-1-oxo-3-(thiophen-2-yl)-1,2,3,4-tetrahydroisoquinoline-4-carboxamide] | 76.4 (≈ 164 µM) | 0.7 (≈ 1.5 µM) |  |
| COCCN1C(=O)c2ccccc2C(C(=O)Nc2cccc(OC)c2)C1c1csc(C)n1 (stereo not shown) [C98, 2-(2-methoxyethyl)-N-(3-methoxyphenyl)-3-(2-methylthiazol-4-yl)-1-oxo-1,2,3,4-tetrahydroisoquinoline-4-carboxamide] | 80.9 (≈ 179 µM) | 50.3 (≈ 111 µM) |  |
| COCCN1C(=O)c2ccccc2C(C(=O)Nc2ccc3c(c2)COC3)C1c1cccs1 (stereo not shown) [C190, N-(1,3-dihydroisobenzofuran-5-yl)-2-(2-methoxyethyl)-1-oxo-3-(thiophen-2-yl)-1,2,3,4-tetrahydroisoquinoline-4-carboxamide] | 75.9 (≈ 169 µM) | 0.14 (≈ 0.312 µM) |  |
| COc1cccc(NC(=O)C2c3ccccc3C(=O)N(Cc3ccccc3)C2c2cccs2)c1 (stereo not shown) [C37, 2-Benzyl-N-(3-methoxyphenyl)-1-oxo-3-(thiophen-2-yl)-1,2,3,4-tetrahydroisoquinoline-4-carboxamide] | 92.7 (≈ 198 µM) | 1.5 (≈ 3.2 µM) |  |
| COCCN1C(=O)c2ccccc2C(C(=O)Nc2ccc(N3CCCCC3)cc2)C1c1cccs1 (stereo not shown) [C107, 2-(2-methoxyethyl)-1-oxo-N-(4-(piperidin-1-yl)phenyl)-3-(thiophen-2-yl)-1,2,3,4-tetrahydroisoquinoline-4-carboxamide] | 23.5 (≈ 47.9 µM) | 0.12 (≈ 0.245 µM) |  |
| COCCN1C(=O)c2ccccc2C(C(=O)Nc2ccc3c(ccn3C)c2)C1c1cccs1 (stereo not shown) [C123, 2-(2-methoxyethyl)-N-(1-methyl-1H-indol-5-yl)-1-oxo-3-(thiophen-2-yl)-1,2,3,4-tetrahydroisoquinoline-4-carboxamide] | 87.9 (≈ 191 µM) | 0.25 (≈ 0.544 µM) |  |
| COCCN1C(=O)c2ccccc2C(C(=O)Nc2ccc(C#N)cc2)C1c1cccs1 (stereo not shown) [C20, N-(4-cyanophenyl)-2-(2-methoxyethyl)-1-oxo-3-(thiophen-2-yl)-1,2,3,4-tetrahydroisoquinoline-4-carboxamide] | 42 (≈ 97.3 µM) | 0.4 (≈ 0.927 µM) |  |
| COCCN1C(=O)c2ccccc2C(C(=O)Nc2cccc(OC)c2)C1C(C)(C)C (stereo not shown) [C57, 3-tert-Butyl-2-(2-methoxyethyl)-N-(3-methoxyphenyl)-1-oxo-1,2,3,4-tetrahydroisoquinoline-4-carboxamide] | 76.2 (≈ 186 µM) | 39.5 (≈ 96.1 µM) |  |
| COCCN1C(=O)c2ccccc2C(C(=O)Nc2ccc3scnc3c2)C1c1cccs1 (stereo not shown) [C81, N-(benzo[d]thiazol-5-yl)-2-(2-methoxyethyl)-1-oxo-3-(thiophen-2-yl)-1,2,3,4-tetrahydroisoquinoline-4-carboxamide] | 65 (≈ 140 µM) |  | 0.16 (≈ 0.345 µM) |
| COCCN1C(=O)c2ccccc2C(C(=O)Nc2ccc(Cl)c(OC)c2)C1c1cccs1 (stereo not shown) [C111, N-(4-chloro-3-methoxyphenyl)-2-(2-methoxyethyl)-1-oxo-3-(thiophen-2-yl)-1,2,3,4-tetrahydroisoquinoline-4-carboxamide] | 86.7 (≈ 184 µM) | 0.17 (≈ 0.361 µM) |  |
| COc1cccc(NC(=O)C2c3ccccc3C(=O)N(CCCN3CCOCC3)C2c2cccs2)c1 (stereo not shown) [C64, N-(3-methoxyphenyl)-2-(3-morpholinopropyl)-1-oxo-3-(thiophen-2-yl)-1,2,3,4-tetrahydroisoquinoline-4-carboxamide] | 47.8 (≈ 94.5 µM) | 23.9 (≈ 47.2 µM) |  |
| COCCN1C(=O)c2ccccc2C(C(=O)Nc2cccc(OC)c2)C1c1ccncc1 (stereo not shown) [C30, 2-(2-Methoxyethyl)-N-(3-methoxyphenyl)-1-oxo-3-(pyridin-4-yl)-1,2,3,4-tetrahydroisoquinoline-4-carboxamide] | 70.3 (≈ 163 µM) | 36.7 (≈ 85 µM) |  |
| COCCN1C(=O)c2ccccc2C(C(=O)Nc2ccc(Cn3ccnc3)cc2)C1c1cccs1 (stereo not shown) [C215, N-(4-((1H-imidazol-1-yl)methyl)phenyl)-2-(2-methoxyethyl)-1-oxo-3-(thiophen-2-yl)-1,2,3,4-tetrahydroisoquinoline-4-carboxamide] | 52.9 (≈ 109 µM) | 1.04 (≈ 2.14 µM) |  |
| COCCN1C(=O)c2cccc(OC)c2C(C(=O)Nc2cccc(OC)c2)C1c1cccs1 (stereo not shown) [C148, 5-methoxy-2-(2-methoxyethyl)-N-(3-methoxyphenyl)-1-oxo-3-(thiophen-2-yl)-1,2,3,4-tetrahydroisoquinoline-4-carboxamide] | 52.1 (≈ 112 µM) | 24.6 (≈ 52.6 µM) |  |
| CCOc1cccc(NC(=O)C2c3ccccc3C(=O)N(CCOC)C2c2cccs2)c1 (stereo not shown) [C59, N-(3-ethoxyphenyl)-2-(2-methoxyethyl)-1-oxo-3-(thiophen-2-yl)-1,2,3,4-tetrahydroisoquinoline-4-carboxamide] | 88.1 (≈ 196 µM) | 0.3 (≈ 0.666 µM) |  |
| COCCN1C(=O)c2ccccc2C(C(=O)Nc2ccc(CO)cc2)C1c1cccs1 (stereo not shown) [C181, N-(4-(hydroxymethyl)phenyl)-2-(2-methoxyethyl)-1-oxo-3-(thiophen-2-yl)-1,2,3,4-tetrahydroisoquinoline-4-carboxamide] | 79.9 (≈ 183 µM) | 0.25 (≈ 0.573 µM) |  |
| COCCN1C(=O)c2ccccc2C(C(=O)NCCc2cn(C)c3ccccc23)C1c1cccs1 (stereo not shown) [C44, 2-(2-Methoxyethyl)-N-(2-(1-methyl-1H-indol-3-yl)ethyl)-1-oxo-3-(thiophen-2-yl)-1,2,3,4-tetrahydroisoquinoline-4-carboxamide] | 28.4 (≈ 58.2 µM) | 4.17 (≈ 8.55 µM) |  |
| COCCCN1C(=O)c2ccccc2C(C(=O)Nc2cccc(OC)c2)C1c1cccs1 (stereo not shown) [C13, N-(3-methoxyphenyl)-2-(3-methoxypropyl)-1-oxo-3-(thiophen-2-yl)-1,2,3,4-tetrahydroisoquinoline-4-carboxamide] | 33.3 (≈ 73.9 µM) | 2.11 (≈ 4.68 µM) |  |
| COCCN1C(=O)c2ccccc2C(C(=O)Nc2ccc(F)cc2)C1c1cccs1 (stereo not shown) [C95, N-(4-fluorophenyl)-2-(2-methoxyethyl)-1-oxo-3-(thiophen-2-yl)-1,2,3,4-tetrahydroisoquinoline-4-carboxamide] | 76.3 (≈ 180 µM) | 2.21 (≈ 5.21 µM) |  |
| COCCN1C(=O)c2ccccc2C(C(=O)Nc2cccc(OC)c2)C1c1ccco1 (stereo not shown) [C6, 3-(furan-2-yl)-2-(2-methoxyethyl)-N-(3-methoxyphenyl)-1-oxo-1,2,3,4-tetrahydroisoquinoline-4-carboxamide] | 69.6 (≈ 166 µM) | 6.3 (≈ 15 µM) |  |
| COCCN1C(=O)c2ccccc2C(C(=O)Nc2ccc(-n3cncn3)cc2)C1c1cccs1 (stereo not shown) [C167, N-(4-(1H-1,2,4-triazol-1-yl)phenyl)-2-(2-methoxyethyl)-1-oxo-3-(thiophen-2-yl)-1,2,3,4-tetrahydroisoquinoline-4-carboxamide] | 60 (≈ 127 µM) | 0.12 (≈ 0.253 µM) |  |
| COCCN1C(=O)c2ccccc2C(C(=O)Nc2cccc(OC)c2)C1c1ccc(Cl)s1 (stereo not shown) [C135, 3-(5-chlorothiophen-2-yl)-2-(2-methoxyethyl)-N-(3-methoxyphenyl)-1-oxo-1,2,3,4-tetrahydroisoquinoline-4-carboxamide] | 56.7 (≈ 120 µM) | 0.52 (≈ 1.1 µM) |  |
| COCCN1C(=O)c2ccccc2C(C(=O)Nc2nc3ccc(F)cc3s2)C1c1cccs1 (stereo not shown) [C199, N-(6-fluorobenzo[d]thiazol-2-yl)-2-(2-methoxyethyl)-1-oxo-3-(thiophen-2-yl)-1,2,3,4-tetrahydroisoquinoline-4-carboxamide] | 5.97 (≈ 12.4 µM) | 0.12 (≈ 0.249 µM) |  |
| COCCN1C(=O)c2ccccc2C(C(=O)Nc2ccc(C)cc2)C1c1cccs1 (stereo not shown) [C86, 2-(2-methoxyethyl)-1-oxo-3-(thiophen-2-yl)-N-p-tolyl-1,2,3,4-tetrahydroisoquinoline-4-carboxamide] | 75 (≈ 178 µM) | 0.25 (≈ 0.594 µM) |  |
| COCCN1C(=O)c2c(ccc(C)c2F)C(C(=O)Nc2cccc(OC)c2)C1c1cccs1 (stereo not shown) [C93, 8-fluoro-2-(2-methoxyethyl)-N-(3-methoxyphenyl)-7-methyl-1-oxo-3-(thiophen-2-yl)-1,2,3,4-tetrahydroisoquinoline-4-carboxamide] | 32.9 (≈ 70.2 µM) | 0.17 (≈ 0.363 µM) |  |
